Data published in patent publication US20100311714A1, “1H-IMIDAZO[4,5-c]QUINOLINONE COMPOUNDS” (priority 2009, published 2010).
Where two headings read alike, the source gives them in different places.

Columns and labels:
[1] = target: T1, mTOR (Homo sapiens, UniProt P42345); assay: Biochemical assay for m-TOR by TR-FRET
T1 construct: purchased Invitrogen Corporation (Carlsbad/Calif., USA) PV4753
Outline: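 mTOR (0.5 nM) phosphorylates GFP-4EBP1 (400 nM) with 8 μM ATP at rt in 50 mM HEPES pH 7.5, 10 mM MnCl2, 50 mM NaCl, 1 mM EGTA, 1 mM DTT; compounds 0.003–10 μM final. EDTA stop with Tb-anti-p4EBP1[pT46] antibody (0.5 nM); TR-FRET read after 15 min against no-enzyme and vehicle controls.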

[2] = target: T2, PI3K delta (Homo sapiens, UniProt O00329); assay: PI3K delta kinase assay (Kinase-Glo luminescence); type: biochemical
T2 construct: for the full-length p110-d subunit are generated and fused by overlapping PCR; His tag (C); made in house; host or cells: baculovirus BV1060; Tn5 (Trichoplusia ni) or TiniPro insect cells
T2 sequence (O00329 with tags, fused parts or gaps limits assumed): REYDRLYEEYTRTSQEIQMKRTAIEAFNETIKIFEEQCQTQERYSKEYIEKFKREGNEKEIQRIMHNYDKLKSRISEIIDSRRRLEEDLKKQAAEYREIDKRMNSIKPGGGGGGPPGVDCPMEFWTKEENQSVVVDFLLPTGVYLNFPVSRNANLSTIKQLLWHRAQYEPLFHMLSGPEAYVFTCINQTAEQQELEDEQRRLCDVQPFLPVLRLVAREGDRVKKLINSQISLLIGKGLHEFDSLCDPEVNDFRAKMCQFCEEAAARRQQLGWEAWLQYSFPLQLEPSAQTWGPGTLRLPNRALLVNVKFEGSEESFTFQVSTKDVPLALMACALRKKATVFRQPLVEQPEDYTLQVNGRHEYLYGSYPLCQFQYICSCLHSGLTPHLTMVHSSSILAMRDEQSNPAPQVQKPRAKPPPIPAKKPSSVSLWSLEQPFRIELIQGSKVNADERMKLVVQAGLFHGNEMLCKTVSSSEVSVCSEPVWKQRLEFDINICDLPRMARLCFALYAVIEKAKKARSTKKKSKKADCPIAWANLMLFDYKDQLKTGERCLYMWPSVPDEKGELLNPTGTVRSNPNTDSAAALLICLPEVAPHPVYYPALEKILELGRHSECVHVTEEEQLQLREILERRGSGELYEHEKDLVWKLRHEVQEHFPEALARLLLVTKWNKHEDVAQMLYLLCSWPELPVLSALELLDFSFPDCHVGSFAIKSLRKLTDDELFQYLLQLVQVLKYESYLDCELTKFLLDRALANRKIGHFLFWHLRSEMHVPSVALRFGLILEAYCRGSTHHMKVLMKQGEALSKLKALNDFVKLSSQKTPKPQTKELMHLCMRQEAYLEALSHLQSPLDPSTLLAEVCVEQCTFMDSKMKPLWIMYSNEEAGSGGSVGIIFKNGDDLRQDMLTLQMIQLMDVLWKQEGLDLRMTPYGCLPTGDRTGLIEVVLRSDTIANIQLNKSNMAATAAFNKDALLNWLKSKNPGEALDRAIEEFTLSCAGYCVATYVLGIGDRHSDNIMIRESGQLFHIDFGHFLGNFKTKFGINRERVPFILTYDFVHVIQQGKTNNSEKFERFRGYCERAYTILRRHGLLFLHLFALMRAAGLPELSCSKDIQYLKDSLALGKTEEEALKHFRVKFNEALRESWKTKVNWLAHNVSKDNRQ
Outline: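 Kinase-Glo ATP-depletion luminescence using 10 nM p85(iSH2)-linker-p110δ full-length His-tag construct from insect cells, with 1 μM ATP and 10 μg/mL phosphatidylinositol in 10 mM Tris pH 7.5, 3 mM MgCl2, 50 mM NaCl, 0.05% CHAPS, 1 mM DTT. 60 min room temperature; IC50 from 4-parameter logistic fit over 8 concentrations.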

T1 sequence (P42345 1360-2549 limits assumed): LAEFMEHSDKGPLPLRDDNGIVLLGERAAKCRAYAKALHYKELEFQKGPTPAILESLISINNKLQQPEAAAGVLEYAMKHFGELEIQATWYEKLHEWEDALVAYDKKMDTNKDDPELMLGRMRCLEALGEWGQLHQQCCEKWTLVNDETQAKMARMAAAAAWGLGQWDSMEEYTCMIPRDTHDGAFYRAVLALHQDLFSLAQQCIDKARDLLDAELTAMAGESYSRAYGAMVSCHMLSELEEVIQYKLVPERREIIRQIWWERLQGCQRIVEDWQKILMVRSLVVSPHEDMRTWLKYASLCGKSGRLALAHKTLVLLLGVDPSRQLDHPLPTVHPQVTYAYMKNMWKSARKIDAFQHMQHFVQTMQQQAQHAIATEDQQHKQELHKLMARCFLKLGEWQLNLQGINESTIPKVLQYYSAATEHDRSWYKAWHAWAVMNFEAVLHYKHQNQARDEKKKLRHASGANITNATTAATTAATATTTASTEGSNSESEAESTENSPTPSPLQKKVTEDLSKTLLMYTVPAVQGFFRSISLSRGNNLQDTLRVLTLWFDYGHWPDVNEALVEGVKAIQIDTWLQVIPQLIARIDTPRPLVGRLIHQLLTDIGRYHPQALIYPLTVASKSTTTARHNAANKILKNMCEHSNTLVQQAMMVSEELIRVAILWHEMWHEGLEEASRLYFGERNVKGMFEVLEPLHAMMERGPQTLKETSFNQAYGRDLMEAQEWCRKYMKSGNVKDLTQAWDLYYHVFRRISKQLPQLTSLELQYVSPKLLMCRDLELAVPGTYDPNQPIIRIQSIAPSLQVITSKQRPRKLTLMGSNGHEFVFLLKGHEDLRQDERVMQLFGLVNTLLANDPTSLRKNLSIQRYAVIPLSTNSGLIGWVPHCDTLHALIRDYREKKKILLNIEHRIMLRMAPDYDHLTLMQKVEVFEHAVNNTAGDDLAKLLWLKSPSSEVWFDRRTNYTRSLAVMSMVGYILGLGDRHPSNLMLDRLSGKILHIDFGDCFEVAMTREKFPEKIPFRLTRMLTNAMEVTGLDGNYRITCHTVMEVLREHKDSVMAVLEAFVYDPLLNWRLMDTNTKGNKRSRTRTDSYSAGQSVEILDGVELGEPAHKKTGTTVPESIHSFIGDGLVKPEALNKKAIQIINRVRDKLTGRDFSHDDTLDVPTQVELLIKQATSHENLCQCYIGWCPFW

SMILES	IC50 ([1]; read-out: EPK_mTOR/IC50) [µM]	IC50 ([2]; read-out: EPK_PI3Kdelta/IC50) [µM]	IC50 ([1]; read-out: mTOR/IC50) [µM]	IC50 ([2]; read-out: PI3Kdelta/IC50) [µM]
Cc1ncccc1-n1c(=O)n(C)c2cnc3ccc(-c4ccc(N)nc4)cc3c21 [Example 2.7, 8-(6-Amino-pyridin-3-yl)-3-methyl-1-(2-methyl-pyridin-3-yl)-1,3-dihydro-imidazo[4,5-c]quinolin-2-one]	–	–	0.018	0.035
CCOc1cc(-c2ccc3ncc4c(c3c2)n(-c2cccnc2C)c(=O)n4C)cnc1COC [Example 2.28, 8-(5-Ethoxy-6-methoxymethyl-pyridin-3-yl)-3-methyl-1-(2-methyl-pyridin-3-yl)-1,3-dihydro-imidazo[4,5-c]quinolin-2-one]	0.058	0.054	–	–
Cc1nc(F)ccc1-n1c(=O)n(C)c2cnc3ccc(-c4cncc(C(C)(C)O)c4)cc3c21 [Example 7.8, 1-(6-Fluoro-2-methyl-pyridin-3-yl)-8-[5-(1-hydroxy-1-methyl-ethyl)-pyridin-3-yl]-3-methyl-1,3-dihydro-imidazo[4,5-c]quinolin-2-one]	0.086	0.038	–	–
Cc1nc(N2CCN(C)C(=O)C2)ccc1-n1c(=O)n(C)c2cnc3ccc(-c4cnc(N)c(C(F)(F)F)c4)cc3c21 [Example 21.1, 8-(6-Amino-5-trifluoromethyl-pyridin-3-yl)-3-methyl-1-[2-methyl-6-(4-methyl-3-oxo-piperazin-1-yl)-pyridin-3-yl]-1,3-dihydro-imidazo[4,5-c]quinolin-2-one]	< 0.003	0.005	–	–
CCOc1ccc(-c2ccc3ncc4c(c3c2)n(-c2cccnc2F)c(=O)n4C)cn1 [Example 6.1, 8-(6-Ethoxy-pyridin-3-yl)-1-(2-fluoro-pyridin-3-yl)-3-methyl-1,3-dihydro-imidazo[4,5-c]quinolin-2-one]	–	–	0.107	0.064
COc1ccc(-c2ccc3ncc4c(c3c2)n(-c2cccnc2C)c(=O)n4C)cc1OC [Example 2.9, 8-(3,4-Dimethoxy-phenyl)-3-methyl-1-(2-methyl-pyridin-3-yl)-1,3-dihydro-imidazo[4,5-c]quinolin-2-one]	–	–	0.023	0.037
CCOc1cc(-c2ccc3ncc4c(c3c2)n(-c2ccc(F)nc2C)c(=O)n4C)cnc1COC [Example 7.5, 8-(5-Ethoxy-6-methoxymethyl-pyridin-3-yl)-1-(6-fluoro-2-methyl-pyridin-3-yl)-3-methyl-1,3-dihydro-imidazo[4,5-c]quinolin-2-one]	0.088	0.078	–	–
CNc1cc(-c2ccc3ncc4c(c3c2)n(-c2cccnc2C)c(=O)n4C)cnc1C [Example 2.32, 3-Methyl-8-(6-methyl-5-methylamino-pyridin-3-yl)-1-(2-methyl-pyridin-3-yl)-1,3-dihydro-imidazo[4,5-c]quinolin-2-one]	0.007	0.031	–	–
CCOc1ncc(-c2ccc3ncc4c(c3c2)n(-c2cccnc2C)c(=O)n4C)cn1 [Example 2.5, 8-(2-Ethoxy-pyrimidin-5-yl)-3-methyl-1-(2-methyl-pyridin-3-yl)-1,3-dihydro-imidazo[4,5-c]quinolin-2-one]	–	–	0.166	0.058
CNc1ccc(-c2ccc3ncc4c(c3c2)n(-c2ccc(F)nc2C)c(=O)n4C)cn1 [Example 7.4, 1-(6-Fluoro-2-methyl-pyridin-3-yl)-3-methyl-8-(6-methylamino-pyridin-3-yl)-1,3-dihydro-imidazo[4,5-c]quinolin-2-one]	–	–	0.008	0.021
Cc1ncccc1-n1c(=O)n(C)c2cnc3ccc(-c4ccc(C(N)=O)cc4)cc3c21 [Example 2.3, 4-[3-Methyl-1-(2-methyl-pyridin-3-yl)-2-oxo-2,3-dihydro-1H-imidazo[4,5-c]quinolin-8-yl]-benzamide]	–	–	0.011	0.093
Cc1ncccc1-n1c(=O)n(C)c2cnc3ccc(-c4ccc(CO)nc4)cc3c21 [Example 2.6, 8-(6-Hydroxymethyl-pyridin-3-yl)-3-methyl-1-(2-methyl-pyridin-3-yl)-1,3-dihydro-imidazo[4,5-c]quinolin-2-one]	–	–	0.104	0.059

The remaining lines, values ahead:

IC50 ([1]; read-out: EPK_mTOR/IC50) [µM]	IC50 ([2]; read-out: EPK_PI3Kdelta/IC50) [µM]	IC50 ([1]; read-out: mTOR/IC50) [µM]	IC50 ([2]; read-out: PI3Kdelta/IC50) [µM]	SMILES
0.004	0.009	–	–	CNc1ncc(-c2ccc3ncc4c(c3c2)n(-c2ccc(N3CC[C@H](O)C3)nc2C)c(=O)n4C)cn1 [Example 32.1, 1-[6-((S)-3-Hydroxy-pyrrolidin-1-yl)-2-methyl-pyridin-3-yl]-3-methyl-8-(2-methylamino-pyrimidin-5-yl)-1,3-dihydro-imidazo[4,5-c]quinolin-2-one]
0.061	0.05	–	–	COc1cc(-c2ccc3ncc4c(c3c2)n(-c2ccc(N3CC(O)C3)nc2C)c(=O)n4C)cnc1CO [Example 29.5, 1-[6-(3-Hydroxy-azetidin-1-yl)-2-methyl-pyridin-3-yl]-8-(6-hydroxymethyl-5-methoxy-pyridin-3-yl)-3-methyl-1,3-dihydro-imidazo[4,5-c]quinolin-2-one]
0.012	< 0.003	–	–	Cc1nc(N2CCCC2)ccc1-n1c(=O)n(C)c2cnc3ccc(-c4cncc(C(C)(C)O)c4)cc3c21 [Example 25.3, 8-[5-(1-Hydroxy-1-methyl-ethyl)-pyridin-3-yl]-3-methyl-1-(2-methyl-6-pyrrolidin-1-yl-pyridin-3-yl)-1,3-dihydro-imidazo[4,5-c]quinolin-2-one]
0.006	0.055	–	–	CNc1ncc(-c2ccc3ncc4c(c3c2)n(-c2ccc(N3CCC(O)C3)nc2C)c(=O)n4C)cn1 (stereo not shown) [Example 27.2, 1-[6-(3-Hydroxy-pyrrolidin-1-yl)-2-methyl-pyridin-3-yl]-3-methyl-8-(2-methylamino-pyrimidin-5-yl)-1,3-dihydro-imidazo[4,5-c]quinolin-2-one]
0.009	0.084	–	–	Cc1nc(N2CCC2)ccc1-n1c(=O)n(C)c2cnc3ccc(-c4cncc(N5CCC5)c4)cc3c21 [Example 23.1, 1-(6-Azetidin-1-yl-2-methyl-pyridin-3-yl)-8-(5-azetidin-1-yl-pyridin-3-yl)-3-methyl-1,3-dihydro-imidazo[4,5-c]quinolin-2-one]
0.003	0.088	–	–	CNc1ncc(-c2ccc3ncc4c(c3c2)n(-c2ccc(N(C)CCO)nc2C)c(=O)n4C)cn1 [Example 26.2, 1-{6-[(2-Hydroxy-ethyl)-methyl-amino]-2-methyl-pyridin-3-yl}-3-methyl-8-(2-methylamino-pyrimidin-5-yl)-1,3-dihydro-imidazo[4,5-c]quinolin-2-one]
0.137	0.046	–	–	COCc1ncc(-c2ccc3ncc4c(c3c2)n(-c2ccc(N3CCC3)nc2C)c(=O)n4C)cc1OC [Example 23.6, 1-(6-Azetidin-1-yl-2-methyl-pyridin-3-yl)-8-(5-methoxy-6-methoxymethyl-pyridin-3-yl)-3-methyl-1,3-dihydro-imidazo[4,5-c]quinolin-2-one]
0.005	0.019	–	–	CCNc1cc(-c2ccc3ncc4c(c3c2)n(-c2ccc(N3CC(O)C3)nc2C)c(=O)n4C)cnc1CO [Example 29.2, 8-(5-Ethylamino-6-hydroxymethyl-pyridin-3-yl)-1-[6-(3-hydroxy-azetidin-1-yl)-2-methyl-pyridin-3-yl]-3-methyl-1,3-dihydro-imidazo[4,5-c]quinolin-2-one]
0.009	0.004	–	–	CNc1ncc(-c2ccc3ncc4c(c3c2)n(-c2ccc(N3CC[C@H](O)C3)nc2C)c(=O)n4C)cc1C(F)(F)F [Example 32.5, 1-[6-((S)-3-Hydroxy-pyrrolidin-1-yl)-2-methyl-pyridin-3-yl]-3-methyl-8-(6-methylamino-5-trifluoromethyl-pyridin-3-yl)-1,3-dihydro-imidazo[4,5-c]quinolin-2-one]
0.122	0.007	–	–	Cc1nc(C(C)(C)O)ccc1-n1c(=O)n(C)c2cnc3ccc(-c4cncc(C5(C#N)CCC5)c4)cc3c21 [Example 31.8, 1-(5-{1-[6-(1-Hydroxy-1-methyl-ethyl)-2-methyl-pyridin-3-yl]-3-methyl-2-oxo-2,3-dihydro-1H-imidazo[4,5-c]quinolin-8-yl}-pyridin-3-yl)-cyclobutanecarbonitrile]
0.011	0.01	–	–	COc1ncc(-c2ccc3ncc4c(c3c2)n(-c2ccc(N3CC(O)C3)nc2C)c(=O)n4C)c(OC)n1 [Example 29.6, 8-(2,4-Dimethoxy-pyrimidin-5-yl)-1-[6-(3-hydroxy-azetidin-1-yl)-2-methyl-pyridin-3-yl]-3-methyl-1,3-dihydro-imidazo[4,5-c]quinolin-2-one]
0.0425	0.039	–	–	Cc1nc(N2CC[C@H](O)C2)ccc1-n1c(=O)n(C)c2cnc3ccc(-c4cncc(OC(C)C)c4)cc3c21 [Example 32.8, 1-[6-((S)-3-Hydroxy-pyrrolidin-1-yl)-2-methyl-pyridin-3-yl]-8-(5-isopropoxy-pyridin-3-yl)-3-methyl-1,3-dihydro-imidazo[4,5-c]quinolin-2-one]
0.037	0.032	–	–	Cc1nc(N2CCC2)ccc1-n1c(=O)n(C)c2cnc3ccc(-c4cncc(OC(C)C)c4)cc3c21 [Example 23.9, 1-(6-Azetidin-1-yl-2-methyl-pyridin-3-yl)-8-(5-isopropoxy-pyridin-3-yl)-3-methyl-1,3-dihydro-imidazo[4,5-c]quinolin-2-one]
0.075	0.036	–	–	CCOc1ccc(-c2ccc3ncc4c(c3c2)n(-c2ccc(C(C)(C)O)nc2C)c(=O)n4C)cn1 [Example 31.4, 8-(6-Ethoxy-pyridin-3-yl)-1-[6-(1-hydroxy-1-methyl-ethyl)-2-methyl-pyridin-3-yl]-3-methyl-1,3-dihydro-imidazo[4,5-c]quinolin-2-one]
